Residue numbers refer to the chain shown, from its start. Names and notes keep the numbering of the source.
How the values were obtained:
[1] = system: mammospheres of the human beast cancer-derived cancer stem cells; assay: Proliferation of mammospheres of breast cancer-derived cancer stem cells; type: cell-based; details: treated at the concentration of 0 to 60 μM; FIG. 10A/10B
Procedure: (§1) The purified derivatives were treated to human beast cancer cells and human beast cancer-derived cancer stem cells and then the effects thereof were confirmed.
The human breast cancer cells MDA-MB-231 were incubated at a density of 0.5 to 1×10^4 cells in a ultra-low attachment 6-well plate containing 2 ml of a Complete MammoCult™ medium (StemCell Technologies, Canada) added with 4 μg/ml of heparin, 0.48 μg/ml of hydrocortisone, 100 U/ml of penicillin, and 100 μg/ml of streptomycin (carbon dioxide 5%, 37° C.) to form mammospheres of the human beast cancer-derived cancer stem cells.

[2] = system: human breast cancer cells MDA-MB-231; assay: Proliferation of human breast cancer cells; type: cell-based; details: same concentration as in mammospheres (0 to 60 μM), FIG. 10A
Procedure: as §1
More specifically, first, human breast cancer cells MDA-MB-231 (ATCC) were incubated at a density of 1×10^6 cells in a 10 cm culture dish with a DMEM medium added with 10% fetal bovine serum (FBS, Hyclone), 100 U/ml penicillin, and 100 μg/ml of streptomycin (carbon dioxide 5%, 37° C.).

[3] = biological target: Protein having amino acid sequence of SEQ ID NO: 1 (protein K9V_A296G; enzyme for producing di-hydroxy derivative of polyunsaturated fatty acids) (Phormidium nigroviride, UniProt K9VMV7, A296G); details: pH 8.0, 20° C.
Procedure: At this time, 50 mM of a sodium phosphate buffer in the case of pH 7.0, 50 mM of a Tris-HCl buffer in the case of pH 8.0, and 50 mM of a sodium borate buffer in the case of pH 9.0 to pH 11.0 were used, respectively.

[4] = biological target: T1, Protein having amino acid sequence of SEQ ID NO: 2 (protein K9V; enzyme for producing tri-hydroxy or tetra-hydroxy derivative of polyunsaturated fatty acids) (Phormidium nigroviride, UniProt K9VMV7); assay: Reaction rate (Km, Kcat) under optimal conditions, protein of SEQ ID NO: 2; type: biochemical; details: pH 7.0, 30° C.
T1 construct: Ni-NTA purified
T1 sequence (K9VMV7 1-571): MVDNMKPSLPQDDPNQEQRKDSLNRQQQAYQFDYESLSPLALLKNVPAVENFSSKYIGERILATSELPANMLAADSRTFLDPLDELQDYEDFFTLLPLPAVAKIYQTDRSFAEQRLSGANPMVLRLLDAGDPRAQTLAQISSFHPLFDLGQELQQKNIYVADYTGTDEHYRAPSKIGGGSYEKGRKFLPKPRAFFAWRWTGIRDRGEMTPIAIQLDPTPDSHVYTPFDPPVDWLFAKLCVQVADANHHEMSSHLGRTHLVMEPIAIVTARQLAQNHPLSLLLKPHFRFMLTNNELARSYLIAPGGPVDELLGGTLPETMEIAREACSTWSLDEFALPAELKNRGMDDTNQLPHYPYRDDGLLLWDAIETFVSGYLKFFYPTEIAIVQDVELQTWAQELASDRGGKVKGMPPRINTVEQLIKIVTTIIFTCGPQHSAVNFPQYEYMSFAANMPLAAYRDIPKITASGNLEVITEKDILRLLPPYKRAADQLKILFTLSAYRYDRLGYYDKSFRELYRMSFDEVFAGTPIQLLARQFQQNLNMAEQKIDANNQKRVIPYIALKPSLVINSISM
From the text: Under optimal conditions confirmed in [4-1] and [4-2] above, Km and Kcat values of the protein having the amino acid sequence of SEQ ID NO: 1 and the protein having the amino acid sequence of SEQ ID NO: 2 were examined.

[5] = Effect of pH on enzyme activity (13S-hydroxy-octadecadienoic acid formed); type: biochemical; details: 10 KU/ml protein, 100 μM linoleic acid, 30 minutes
Procedure: (§2) In the same manner as in Example [3-1], the concentration of 13S-hydroxy-octadecadienoic acid in the reaction product was measured, and relative values thereof were compared with each other.

[6] = Effect of temperature on enzyme activity (13S-hydroxy-octadecadienoic acid formed); type: biochemical; details: 100 μM linoleic acid, pH 7, 20° C. to 50° C., 30 minutes
Procedure: as §2

Sequence of Protein having amino acid sequence of SEQ ID NO: 1 (protein K9V_A296G; enzyme for producing di-hydroxy derivative of polyunsaturated fatty acids) (K9VMV7 entry or part of it A296G): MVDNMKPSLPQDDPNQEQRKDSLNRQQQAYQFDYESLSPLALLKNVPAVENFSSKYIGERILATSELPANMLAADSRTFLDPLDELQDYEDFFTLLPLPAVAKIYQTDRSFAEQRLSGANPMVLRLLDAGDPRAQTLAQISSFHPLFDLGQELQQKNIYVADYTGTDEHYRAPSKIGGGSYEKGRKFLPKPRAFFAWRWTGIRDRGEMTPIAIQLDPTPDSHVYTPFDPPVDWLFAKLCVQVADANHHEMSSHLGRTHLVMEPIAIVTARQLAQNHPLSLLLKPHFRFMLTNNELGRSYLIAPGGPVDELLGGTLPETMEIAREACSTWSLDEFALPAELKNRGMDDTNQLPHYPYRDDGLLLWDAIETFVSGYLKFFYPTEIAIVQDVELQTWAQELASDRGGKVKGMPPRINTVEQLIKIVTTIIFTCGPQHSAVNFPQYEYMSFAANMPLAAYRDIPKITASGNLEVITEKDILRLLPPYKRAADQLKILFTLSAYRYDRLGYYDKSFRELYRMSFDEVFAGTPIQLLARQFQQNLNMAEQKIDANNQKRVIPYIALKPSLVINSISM

CCC(O)/C=C/C=C/C=C/C(O)C/C=C/C/C=C/C/C=C/CCC(=O)O (stereo not shown) [di-hydroxy derivative]
proliferation of the mammospheres of the beast cancer-derived cancer stem cells [1]: inhibited | proliferation of the breast cancer cells [2]: no effect

CCCCC/C=C\C/C=C\CCCCCCCC(=O)O [linoleic acid]
Kcat [3]: 0.392 ± 0.0167 s⁻¹ | Km [3]: 46.8 ± 1 µM | Kcat [4]: 0.0067 ± 0.00033 s⁻¹ | Km [4]: 79.4 ± 0.8 µM

B1: Protein having amino acid sequence of SEQ ID NO: 1: enzyme for producing a di-hydroxy derivative of polyunsaturated fatty acids, about 65 KDa, expressed in E. coli (protein)
chain: T1 sequence (K9VMV7 1-571) with A296G
modifications: K9V_A296G
notes: enzyme for producing a di-hydroxy derivative of polyunsaturated fatty acids, about 65 KDa, expressed in E. coli
pH of better (optimal) enzyme activity ([5]; pH 7 to pH 11, 25° C., FIG. 8A): ~8.0 | temperature of better (optimal) enzyme activity ([6]; 50 KU/ml protein, FIG. 9A): ~20 °C

B2: Protein having amino acid sequence of SEQ ID NO: 2: enzyme for producing a tri-hydroxy or tetra-hydroxy derivative of polyunsaturated fatty acids, about 65 KDa, expressed in E. coli (protein)
chain: T1 sequence (K9VMV7 1-571)
modifications: enzyme (K9V)
notes: enzyme for producing a tri-hydroxy or tetra-hydroxy derivative of polyunsaturated fatty acids, about 65 KDa, expressed in E. coli
pH of better (optimal) enzyme activity ([5]; pH 6 to pH 11, 25° C., FIG. 8B): ~8.0 | temperature of better (optimal) enzyme activity ([6]; 10 KU/ml protein, FIG. 9B): ~30 °C

From patent US20250223618A1, “METHOD FOR PRODUCING MULTI-HYDROXY DERIVATIVES OF POLYUNSATURATED FATTY ACIDS” (KOREA RESEARCH INSTITUTE OF BIOSCIENCE AND BIOTECHNOLOGY, priority 2018, published 2025)
